Where a name gives a salt, the structure may show the parent alone.

Holding throughout (assay): Assay B: in vitro antibacterial activity, broth microdilution MIC (NCCLS)
Common to all, as to format: cell-based
(Dilution methods test growth across graded concentrations, often in twofold steps.)

Assay [1] deals with Enterococcus faecalis PIU 1967. The conditions noted are these: Table 2, Assay B, cation-adjusted Mueller Hinton broth, 35° C., 16 to 20 hr; code B = Enterococcus faecalis PIU 1967; unit assumed. Put shortly: (§1)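 NCCLS broth microdilution with two-fold dilutions in cation-adjusted Mueller Hinton broth, inoculum about 5×10^5 CFU/mL, 35 °C in ambient air for 16-20 h; MIC read visually as lowest concentration completely inhibiting growth. S. pneumoniae: 3% lysed horse blood, 20-24 h; H. influenzae: 5 g/L yeast extract, 0.3 mmol/L hematin, 15 mg/L NAD, 20-24 h.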

Assay [2] has as its system Staphylococcus aureus ATCC 6538P. The conditions noted are these: Table 2, Assay B, cation-adjusted Mueller Hinton broth, 35° C., 16 to 20 hr; code A = Staphylococcus aureus ATCC 6538P; unit assumed. Put shortly:
as §1

Assay [3] concerns Haemophilus influenzae DILL AMP R. The conditions noted are these: Table 2, Assay B, Mueller Hinton broth with yeast extract, hematin and NAD, 20 to 24 hr; code E = Haemophilus influenzae DILL AMP R; unit assumed. Put shortly:
as §1

Assay [4] concerns Streptococcus pneumoniae ATCC 6303. The conditions noted are these: Table 2, Assay B, Mueller Hinton broth with 3% lysed horse blood, 20 to 24 hr; code F = Streptococcus pneumoniae ATCC 6303; unit assumed. Put shortly: as §1
In assay [5] the test system is Escherichia coli JUHL. The conditions noted are these: Table 2, Assay B, cation-adjusted Mueller Hinton broth, 35° C., 16 to 20 hr; code D = Escherichia coli JUHL; unit assumed. Put shortly: as §1

The compound `COc1c(-c2cc3c(s2)CCCC3NCc2ccccc2)ccc2c(=O)c(C(=O)O)cn(C3CC3)c12.Cl` (stereo not drawn) [Example 97, 7-(4-(benzylamino)-4,5,6,7-tetrahydro-1-benzothien-2-yl)-1-cyclopropyl-8-methoxn-4-oxo-1,4-dihydro-3-quinolinecarboxylic acid hydrochloride] showed an Antibacterial Activity (MIC's), B in assay [1] of 0.5 µg/mL. Further, in assay [2], the Antibacterial Activity (MIC's), A is 0.125 µg/mL. Further, in assay [3], the Antibacterial Activity (MIC's), E is 0.25 µg/mL. Also, the Antibacterial Activity (MIC's), F in assay [4] amounted to 0.5 µg/mL. This compound displayed an Antibacterial Activity (MIC's), D in assay [5] of 1 µg/mL.
`O=C(O)c1cn(C2CC2)c2c(OC(F)F)c(-c3cc4c(s3)CCCC4O)ccc2c1=O` (stereo not drawn) [Example 99, 1-cyclopropyl-8-(difluoromethoxy)-7-(4-hydroxy-4,5,6,7-tetrahydro-1-benzothien-2-yl)-4-oxo-1,4-dihydro-3-quinolinecarboxylic acid]: the Antibacterial Activity (MIC's), B in assay [1] is 0.125 µg/mL. In addition, the Antibacterial Activity (MIC's), A in assay [2] came out at 0.015 µg/mL. Moreover, the Antibacterial Activity (MIC's), E in assay [3] was 0.015 µg/mL. The Antibacterial Activity (MIC's), F in assay [4] is 0.06 µg/mL. In assay [5], this compound returned an Antibacterial Activity (MIC's), D of 0.25 µg/mL.
The compound `COc1c(-c2cc3c(s2)CCCC3=NNC2=NCCN2)ccc2c(=O)c(C(=O)O)cn(C3CC3)c12` [Example 100, 1-cyclopropyl-7-((4E/Z)-4-(4,5-dihydro-1H-imidazol-2-ylhydrazono)-4,5,6,7-tetrahydro-1-benzothien-2-yl)-8-methoxv-4-oxo-1,4-dihydro-3-quinolinecarboxylic acid] displayed an Antibacterial Activity (MIC's), B in assay [1] of 0.5 µg/mL. This compound gave an Antibacterial Activity (MIC's), A in assay [2] of 0.06 µg/mL. The Antibacterial Activity (MIC's), E in assay [3] was found to be 0.125 µg/mL. Moreover, the Antibacterial Activity (MIC's), F in assay [4] came to 0.03 µg/mL. The compound further yielded an Antibacterial Activity (MIC's), D in assay [5] of 0.25 µg/mL.
In assay [1], `Cl.NC1CCCc2sc(-c3ccc4c(=O)c(C(=O)O)cn(C5CC5)c4c3OC(F)F)cc21` (stereo not drawn) [Example 101, 7-(4-amino-4,5,6,7-tetrahydro-1-benzothien-2-yl)-1-cyclopropyl-8-(difluoromethoxy)-4-oxo-1,4-dihydro-3-quinolinecarboxylic acid hydrochloride] returned an Antibacterial Activity (MIC's), B of 0.125 µg/mL. In addition, the Antibacterial Activity (MIC's), A in assay [2] was 0.03 µg/mL. In assay [3], the Antibacterial Activity (MIC's), E worked out at 0.015 µg/mL. Further, the Antibacterial Activity (MIC's), F in assay [4] came out at 0.03 µg/mL. The compound also had an Antibacterial Activity (MIC's), D in assay [5] of 0.125 µg/mL.
Consider `COc1c(-c2cc3c(s2)S(=O)(=O)N(C)CC3O)ccc2c(=O)c(C(=O)O)cn(C3CC3)c12` (stereo not drawn) [Example 102, 1-cyclopropyl-7-(4-hydroxy-2-methyl-1,1-dioxido-3,4-dihydro-2H-thieno[3,2-e][1,2]thiazin-6-yl)-8-methoxy-4-oxo-1,4-dihydro-3-quinolinecarboxylic acid], for which the Antibacterial Activity (MIC's), B in assay [1] worked out at 1 µg/mL. Besides, the Antibacterial Activity (MIC's), A in assay [2] is 0.25 µg/mL. The compound also had an Antibacterial Activity (MIC's), E in assay [3] of 0.03 µg/mL. In addition, the Antibacterial Activity (MIC's), F in assay [4] came to 0.5 µg/mL. The same compound came in with an Antibacterial Activity (MIC's), D in assay [5] of 8 µg/mL.
In the case of `COc1c(-c2cc3c(s2)CCCC3NCc2cccc(F)c2)ccc2c(=O)c(C(=O)O)cn(C3CC3)c12` (stereo not drawn) [Example 104, 1-cyclopropyl-7-(4-((3-fluorobenzyl)amino)-4,5,6,7-tetrahydro-1-benzothien-2-yl)-8-methoxy-4-oxo-1,4-dihydro-3-quinolinecarboxylic acid hydrochloride], in assay [1], the Antibacterial Activity (MIC's), B stood at 1 µg/mL. The Antibacterial Activity (MIC's), A in assay [2] was determined as 0.25 µg/mL. The compound also had an Antibacterial Activity (MIC's), E in assay [3] of 0.25 µg/mL. In assay [4], the Antibacterial Activity (MIC's), F stood at 0.5 µg/mL. Besides, the Antibacterial Activity (MIC's), D in assay [5] amounted to 2 µg/mL.
Compound `COc1c(-c2cc3c(s2)CCCC3=NN(C)C(N)=S)ccc2c(=O)c(C(=O)O)cn(C3CC3)c12` [Example 105, 7-((4E/Z)-4-[(aminocarbothioyl)(methyl)hydrazono)-4,5,6,7-tetrahydro-1-benzothien-2-yl)-1-cyclopropyl-8-methoxy-4-oxo-1 4-dihydro-3-quinolinecarboxylic acid] came in with an Antibacterial Activity (MIC's), B in assay [1] of 0.25 µg/mL. The Antibacterial Activity (MIC's), A in assay [2] was 0.03 µg/mL. The compound further registered an Antibacterial Activity (MIC's), E in assay [3] of 0.06 µg/mL. In addition, the Antibacterial Activity (MIC's), F in assay [4] worked out at 0.03 µg/mL. In addition, in assay [5], the Antibacterial Activity (MIC's), D stood at 1 µg/mL.
In turn, `COc1c(-c2cc3c(s2)CCC(C)C3=O)ccc2c(=O)c(C(=O)O)cn(C3CC3)c12` (stereo not drawn) [Example 106, 1-cyclopropyl-8-methoxy-7-(5-methyl-4-oxo-4,5,6,7-tetrahydro-1-benzothien-2-yl)-4-oxo-1,4-dihydro-3-quinolinecarboxylic acid] came in with an Antibacterial Activity (MIC's), B in assay [1] of 0.125 µg/mL. Besides, the Antibacterial Activity (MIC's), A in assay [2] was 0.08 µg/mL. In assay [3], the Antibacterial Activity (MIC's), E was determined as 0.06 µg/mL. This compound came in with an Antibacterial Activity (MIC's), F in assay [4] of 0.125 µg/mL. Also, the Antibacterial Activity (MIC's), D in assay [5] was 0.5 µg/mL.
Consider `CNC1CCCc2sc(-c3ccc4c(=O)c(C(=O)O)cn(C5CC5)c4c3OC(F)F)cc21` (stereo not drawn) [Example 107, 1-cyclopropyl-8-(difluoromethoxy)-7-(4-(methylamino)-4,5,6,7-tetrahydro-1-benzothien-2-yl)-4-oxo-1,4-dihydro-3-quinolinecarboxylic acid hydrochloride], for which the Antibacterial Activity (MIC's), B in assay [1] is 0.5 µg/mL. Further, the Antibacterial Activity (MIC's), A in assay [2] came to 0.06 µg/mL. This compound showed an Antibacterial Activity (MIC's), E in assay [3] of 0.06 µg/mL. The Antibacterial Activity (MIC's), F in assay [4] turned out to be 0.06 µg/mL. The compound also yielded an Antibacterial Activity (MIC's), D in assay [5] of 0.25 µg/mL.
In assay [1], `CNC1CCCc2sc(-c3nc4c(cc3F)c(=O)c(C(=O)O)cn4C3CC3)cc21` (stereo not drawn) [Example 108, 1-cyclopropyl-6-fluoro-7-(4-(methylamino)-4,5,6,7-tetrahydro-1-benzothien-2-yl)-4-oxo-1,4-dihydro[1,8]naphthyridine-3-carboxylic acid hydrochloride] yielded an Antibacterial Activity (MIC's), B of 1 µg/mL. Besides, the Antibacterial Activity (MIC's), A in assay [2] amounted to 0.015 µg/mL. This compound also registered an Antibacterial Activity (MIC's), E in assay [3] of 0.008 µg/mL. Moreover, the Antibacterial Activity (MIC's), F in assay [4] came out at 0.25 µg/mL. In assay [5], this compound displayed an Antibacterial Activity (MIC's), D of 0.03 µg/mL.
In turn, `COc1c(-c2cc3c(s2)S(=O)(=O)N(C)CC3N)ccc2c(=O)c(C(=O)O)cn(C3CC3)c12.Cl` (stereo not drawn) [Example 109, 7-(4-amino-2-methyl-1,1-dioxido-3,4-dihydro-2H-thieno[3,2-e][1,2]thiazin-6-yl)-1-cyclopropyl-8-methoxy-4-oxo-1,4-dihydro-3-quinolinecarboxylic acid hydrochloride] had an Antibacterial Activity (MIC's), B in assay [1] of 2 µg/mL. Also, the Antibacterial Activity (MIC's), A in assay [2] came out at 0.125 µg/mL. The compound also registered an Antibacterial Activity (MIC's), E in assay [3] of 0.125 µg/mL. The Antibacterial Activity (MIC's), F in assay [4] came to 0.5 µg/mL. Further, the Antibacterial Activity (MIC's), D in assay [5] stood at 8 µg/mL.
Turning to `COc1c(-c2cc3c(s2)CCCC3CO)ccc2c(=O)c(C(=O)O)cn(C3CC3)c12` (stereo not drawn) [Example 110, 1-cyclopropyl-7-(4-(hydroxymethyl)-4,5,6,7-tetrahydro-1-benzothien-2-yl)-8-methoxy-4-oxo-1,4-dihydro-3-quinolinecarboxylic acid], in assay [1], the Antibacterial Activity (MIC's), B is 0.06 µg/mL. Besides, the Antibacterial Activity (MIC's), A in assay [2] came out at 0.004 µg/mL. In assay [3], this compound registered an Antibacterial Activity (MIC's), E of 0.015 µg/mL. Moreover, in assay [4], the Antibacterial Activity (MIC's), F came to 0.06 µg/mL. In addition, in assay [5], the Antibacterial Activity (MIC's), D turned out to be 0.25 µg/mL.
As to `CNC1CCc2sc(-c3ccc4c(=O)c(C(=O)O)cn(C5CC5)c4c3OC)cc2C1.Cl` (stereo not drawn) [Example 125, 1-cyclopropyl-8-methoxy-7-(5-(methylamino)-4,5,6,7-tetrahydro-1-benzothien-2-yl)-4-oxo-1,4-dihydro-3-quinolinecarboxylic acid hydrochloride], the Antibacterial Activity (MIC's), B in assay [1] was 0.25 µg/mL. This compound had an Antibacterial Activity (MIC's), A in assay [2] of 0.004 µg/mL. For the same compound, the Antibacterial Activity (MIC's), E in assay [3] is 0.03 µg/mL. Besides, the Antibacterial Activity (MIC's), F in assay [4] was 0.03 µg/mL. In assay [5], this compound returned an Antibacterial Activity (MIC's), D of 0.125 µg/mL.
As for `COc1c(-c2cc3c(s2)CCCC3CN2CCOCC2)ccc2c(=O)c(C(=O)O)cn(C3CC3)c12` (stereo not drawn) [Example 126, 1-cyclopropyl-8-methoxy-7-(4-(4-morpholinylmethyl)-4,5,6,7-tetrahydro-1-benzothien-2-yl)-4-oxo-1,4-dihydro-3-quinolinecarboxylic acid], the Antibacterial Activity (MIC's), B in assay [1] worked out at 0.5 µg/mL. In assay [2], this compound gave an Antibacterial Activity (MIC's), A of 0.004 µg/mL. Besides, the Antibacterial Activity (MIC's), E in assay [3] amounted to 1 µg/mL. For the same compound, the Antibacterial Activity (MIC's), F in assay [4] was determined as 0.5 µg/mL. The Antibacterial Activity (MIC's), D in assay [5] turned out to be 16 µg/mL.
Regarding `COc1c(-c2cc3c(s2)CCCC3CN(C)C)ccc2c(=O)c(C(=O)O)cn(C3CC3)c12` (stereo not drawn) [Example 127, 1-cyclopropyl-7-(4-((dimethylamino)methyl)-4,5,6,7-tetrahydro-1-benzothien-2-yl)-8-methoxy-4-oxo-1,4-dihydro-3-quinolinecarboxylic acid], the Antibacterial Activity (MIC's), B in assay [1] came out at 0.25 µg/mL. This compound gave an Antibacterial Activity (MIC's), A in assay [2] of 0.5 µg/mL. Besides, the Antibacterial Activity (MIC's), E in assay [3] came to 0.125 µg/mL. In assay [4], the Antibacterial Activity (MIC's), F came out at 0.5 µg/mL. In assay [5], this compound registered an Antibacterial Activity (MIC's), D of 1 µg/mL.

(Values after patent publication US20020049223A1, “Quinoline and naphthyridine carboxylic acid antibacterials” (priority 1999, published 2002).)
